# “Also recorded” adds a separate entry of the source.
# How the values were obtained:
# B. licheniformis D-GPase [1] = biological target: T1, B. licheniformis D-GPase (Bacillus licheniformis, UniProt Q65CZ1); assay: GPase activity assay, substrate specificity (HPLC of glycerol or dephosphorylated compound); assay type: biochemical; details: PNPP at 1.5 mM read at 420 nm
# T1 construct: about 25 kDa by gel filtration
# T1 sequence (Q65CZ1 1-216): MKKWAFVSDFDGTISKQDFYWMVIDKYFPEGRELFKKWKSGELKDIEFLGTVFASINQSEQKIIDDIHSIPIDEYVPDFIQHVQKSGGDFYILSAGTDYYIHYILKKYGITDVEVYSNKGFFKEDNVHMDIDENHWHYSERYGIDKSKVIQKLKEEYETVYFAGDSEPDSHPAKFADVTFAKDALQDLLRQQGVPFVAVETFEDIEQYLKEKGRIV
# Procedure: (§1) GPase activity was measured by combining cell extract and the appropriate stereoisomer(s) (DL or L) of GP, incubating the mixture, terminating the reaction with acid, and determining the glycerol content by high-performance liquid chromatography (HPLC) analysis. Assay mixtures consisted of, in a total of 500 μl:25 mM MgCl2; 25-50 mM PIPES [piperazine-N,N'-bis(2-ethanesulfonic acid)], pH 7.1; 25-100 mM substrate; and the required volume of cell extract. Incubations were carried out at 37° C. for 30-150 min in microcentrifuge tubes, then 72 μl of 20% trichloroacetic acid (TCA) was added (2.5% final) to each tube to stop the reaction. The samples were spun in a microcentrifuge to remove any precipitate, and the supernatants were filtered through Supor-200 0.2 μm membrane filters (Gelman Sciences, Ann Arbor, Mich.) and analyzed for glycerol by HPLC. Assays for dephosphorylation of other compounds were also analyzed by HPLC (for the dephosphorylated compound) and carried out in the same way as the assays with GP as substrate. Assays for p-nitrophenyl phosphate (PNPP) hydrolysis were the same as with GP as substrate but were carried out with 1.5 mM PNPP in microtiter plates, and absorbance at 420 nm was used to measure the extent of hydrolysis of PNPP. Calf intestinal alkaline phosphatase was used as a standard to ensure that PNPP could be hydrolyzed under the conditions of the assay.
# Glycerol in fermentation broths and assay mixtures was measured by HPLC. The mobile phase was 0.01N H2 SO4, run at a flow rate of 0.6 ml/min through an Aminex HPX-87H organic acids column (Bio-Rad, Hercules, Calif.), which was maintained at 65° C. Samples were injected by a model AS-100 autosampler, and chromatograms were printed by a model 3392A integrator; the detector was a model 1770 differential refractometer (all from Bio-Rad).
# Upon the finding that a GPase was present in B. licheniformis extracts, the inventors sought to determine which GP isomers are dephosphorylated by the enzyme and whether some other common phosphorylated metabolites can also be accepted as substrates. Because the initial assays were conducted with DL-GP, which also contained a small amount of β-GP, the specificity of the enzyme was unclear. HPLC chromatograms of reactions were run with crude cell extract and either DL-GP, L-GP, or β-GP. […] The low activity with pure β-GP rules out the possibility that the activity seen in assays with DL-GP is due to the presence of β-GP as an impurity in the DL-GP preparation.
# [S. cerevisiae] α-GPase = Gancedo et al. 1968; cited from earlier work
# B. licheniformis D-GPase [2] = biological target: T1, B. licheniformis D-GPase; assay type: biochemical; details: for Relative activity: chloride of the cation added at 25 mM
# Procedure: as §1
# L-GPases reported in the literature require divalent magnesium. Therefore, the inventors tested the effects of addition of the chlorides of three divalent cations: magnesium, manganese, and calcium (25 mM each).
# β-galactosidase = details: read-out: Km of β-galactosidase for lactose; cited from earlier work
# B. licheniformis D-GPase [3] = biological target: T1, B. licheniformis D-GPase; assay: Effect of ADP and inorganic phosphate on D-GPase activity; assay type: biochemical
# Procedure: GPase activity was measured by combining cell extract and the appropriate stereoisomer(s) (DL or L) of GP, incubating the mixture, terminating the reaction with acid, and determining the glycerol content by high-performance liquid chromatography (HPLC) analysis. Assay mixtures consisted of, in a total of 500 μl:25 mM MgCl2 ; 25-50 mM PIPES [piperazine-N,N'-bis(2-ethanesulfonic acid)], pH 7.1; 25-100 mM substrate; and the required volume of cell extract. Incubations were carried out at 37° C. for 30-150 min in microcentrifuge tubes, then 72 μl of 20% trichloroacetic acid (TCA) was added (2.5% final) to each tube to stop the reaction. The samples were spun in a microcentrifuge to remove any precipitate, and the supernatants were filtered through Supor-200 0.2 μm membrane filters (Gelman Sciences, Ann Arbor, Mich.) and analyzed for glycerol by HPLC. Assays for dephosphorylation of other compounds were also analyzed by HPLC (for the dephosphorylated compound) and carried out in the same way as the assays with GP as substrate. Assays for p-nitrophenyl phosphate (PNPP) hydrolysis were the same as with GP as substrate but were carried out with 1.5 mM PNPP in microtiter plates, and absorbance at 420 nm was used to measure the extent of hydrolysis of PNPP. Calf intestinal alkaline phosphatase was used as a standard to ensure that PNPP could be hydrolyzed under the conditions of the assay.
# Assays that were analyzed for inorganic phosphate instead of glycerol were carried out using the procedure of Marsh, Biochim. […] Blanks were identical assays except without substrate.
# threonine deaminase = details: cited from earlier work
# carbonic anhydrase = details: read-out: Km of carbonic anhydrase for carbon dioxide; cited from earlier work
molecule,measurement,setting,value
O=P(O)(O)OC[C@H](O)CO [L-α-glycerophosphate],accepted as substrate / hydrolysis by D-GPase,B. licheniformis D-GPase [1],does not accept
O=P(O)(O)OC[C@H]1OC(O)[C@H](O)[C@@H](O)[C@@H]1O (some centres unmarked) [glucose-6-phosphate],accepted as substrate / hydrolysis by D-GPase,B. licheniformis D-GPase [1],little or no hydrolysis; also recorded: does not accept
O=C(O)[C@H](O)COP(=O)(O)O [D-3-phosphoglyceric acid],accepted as substrate / hydrolysis by D-GPase,B. licheniformis D-GPase [1],little or no hydrolysis; also recorded: does not accept
"O=P(O)(O)OC[C@@H](O)CO [D-GP, D-α-glycerophosphate]",efficiency of α-GPase on D-GP relative to that on L-GP,[S. cerevisiae] α-GPase,1/30
[Mg+2] [Mg^2+],Relative activity,B. licheniformis D-GPase [2],1.00
D-glyceraldehyde phosphate,accepted as substrate / hydrolysis by D-GPase,B. licheniformis D-GPase [1]; phosphate,little or no hydrolysis; also recorded: does not accept
OC[C@H]1O[C@@H](O[C@H]2[C@H](O)[C@@H](O)C(O)O[C@@H]2CO)[C@H](O)[C@@H](O)[C@H]1O (some centres unmarked) [lactose],Km,β-galactosidase,~4 mM
[Ca+2] [Ca^2+],inhibition of D-GPase activity by the cation,B. licheniformis D-GPase [2]; 25 mM chloride,does not inhibit D-GPase activity
same,Relative activity,B. licheniformis D-GPase [2],0.08
Nc1ncnc2c1ncn2[C@@H]1O[C@H](COP(=O)(O)OP(=O)(O)O)[C@@H](O)[C@H]1O [ADP],effect on specificity and level of D-GPase activity,B. licheniformis D-GPase [3]; 9 mM ADP added to the assays,neither the specificity nor the level of activity of D-GPase was affected
O=P(O)(O)OC(CO)CO [β-glycerophosphate],accepted as substrate / hydrolysis by D-GPase,B. licheniformis D-GPase [1],does not accept
[Mn+2] [Mn^2+],Relative activity,B. licheniformis D-GPase [2],0.53
C[C@@H](O)[C@H](N)C(=O)O [threonine],Km,threonine deaminase,~5 mM
O=C=O [carbon dioxide],Km,carbonic anhydrase,~8 mM
O=P(O)(O)O [inorganic phosphate],D-GPase activity retained,"B. licheniformis D-GPase [3]; in the presence of 25 mM inorganic phosphate, in vitro hydrolysis of D-GP",75%
same,inhibition of D-GPase activity,B. licheniformis D-GPase [3]; inorganic phosphate present in assays of B. licheniformis extracts,did not acutely inhibit
O=C(CO)COP(=O)(O)O [dihydroxyacetone phosphate],accepted as substrate / hydrolysis by D-GPase,B. licheniformis D-GPase [1]; phosphate,little or no hydrolysis; also recorded: does not accept

# Reference: patent US5733749A, “Glycerol phosphatase with stereo-specific activity” (priority 1995, dated 1998)
